Consider ten compounds from US8067620B2, “Dispiro 1,2,4-trioxolane antimalarials” (Medicines for Malaria Venture MMV, priority 2005, dated 2011).

Series [1] has as its system Embryonic red blood cells (RBCs). Nature of the series: Rat whole embryo culture (WEC) model, embryotoxicity. The source says:
Embryonic red blood cells (RBCs) were the primary target leading to anemia and subsequent hypoxia in embryonic tissues.
Longo, M.; Zanoncelli, S.; Manera, D.; Brughera, M.; Colombo, P.; Lansen J.; Mazué, G.; Gomes, M.; Taylor W. R. J.; Olliaro, P. Effects of the Antimalarial Drug Dihydroartemisinin (DHA) on Rat Embryos In Vitro. Repro. Tox. 2006, 21, 83-93.

The test system of series [2] is P. berghei. Nature of the series: Prophylactic activity against P. berghei in vivo (mice dosed before infection). The settings on record: for Cures 24 h prior to infection (30 mg/kg) / Activity (%) 24 h prior to infection (30 mg/kg): single 30 mg/kg oral dose 24 h prior to infection; for Cures 24 h prior to infection (30 mg/kg) / Cures 48 h prior to infection (100 mg/kg) / Cures 72 h prior to infection (100 mg/kg) / Cures 96 h prior to infection (100 mg/kg): n=5 mice; for Activity (%) 24 h prior to infection (30 mg/kg) / Activity (%) 48 h prior to infection (100 mg/kg): parasitemia day 3 post-infection; for Cures 48 h prior to infection (100 mg/kg) / Activity (%) 48 h prior to infection (100 mg/kg): single 100 mg/kg oral dose 48 h prior to infection; for Activity (%) 72 h prior to infection (100 mg/kg) / Cures 72 h prior to infection (100 mg/kg): single 100 mg/kg oral dose 72 h prior to infection; for Activity (%) 96 h prior to infection (100 mg/kg) / Cures 96 h prior to infection (100 mg/kg): single 100 mg/kg oral dose 96 h prior to infection. Here is the method: All groups (n=5 mice per group) including an untreated control group, were infected at the same time and parasitemia was determined for each animal on day 3 post-infection and compared with the level of parasitemia in control animals.

A short description of series [3]: Blood stability studies in freshly collected rat blood. The format is in vitro ADME. Details: unit not given here. How it is done: Blood stability studies: Compounds were incubated at 37° C. in freshly collected rat blood. At selected time points, duplicate aliquots of the whole blood were sampled, centrifuged and the plasma assayed for parent compound by LC-MS.

Series [4] deals with ANKA strain of P. berghei. Nature of the series: Single dose in vivo screen in P. berghei-infected NMRI mice. As to conditions: for Survival (days) 30 mg/kg SSV po / Activity (%) 30 mg/kg SSV po: single 30 mg/kg po dose in SSV one day post-infection; for Activity (%) 30 mg/kg SSV po: percent reduction in parasitemia on day three post-infection; for Cures 30 mg/kg SSV po: single 30 mg/kg po dose in SSV, cure = survival to day 30 post-infection, groups of five mice. Here is the method: Activity of 1,2,4-trioxolanes against P. berghei in vivo. In the single dose in vivo screen, NMRI mice infected with the ANKA strain of P. berghei (groups of five mice) were treated one day post-infection with trioxolanes dissolved or suspended in standard suspending vehicle (SSV). The SSV consists of either 0.5% w/v carboxymethyl cellulose, 0.5% v/v benzyl alcohol, 0.4% v/v Tween 80, and 0.9% w/v sodium chloride in water or 0.5% hydroxypropylmethylcellulose 0.4% v/s Tween 80, and 0.5% v/v benzyl alcohol in water. […] Antimalarial activity was measured by percent reduction in parasitemia on day three post-infection and survival times compared to an untreated control group. Survival to day 30 post-infection is considered to be a cure in this model.

Series [5] in a line: Pharmacokinetic studies in rats (oral). It is filed as in vivo, rat. The settings on record: oral 10 mg/kg; for Oral Bioavailability at 10 mg/kg (%): relative to an IV dose. How it is done: Pharmacokinetic studies in rats: Compounds were administered orally to rats (n=2) at a dose of 10 mg/kg in a suspension formulation containing hydroxypropylmethyl cellulose, Tween 80, benzyl alcohol, and water. […] Oral bioavailability for each compound was calculated relative to an IV dose for each compound in a suitable vehicle.

Series [6] deals with chloroquine-sensitive NF54 strain of Plasmodium falciparum. Kind of series: Activity against P. falciparum NF54 strain in vitro. It is filed as cell-based. The text has this:
(§1) Activity of 1,2,4-trioxolanes against P. falciparum in vitro.

The subject of series [7] is chloroquine-resistant K1 strain of Plasmodium falciparum. Nature of the series: Activity against P. falciparum K1 strain in vitro. It is filed as cell-based.
Source text: as §1

Where [8] appears, read: P. falciparum NF54, in vitro, second value of K1/NF54 cell, read-out: IC50 (ng/ml) NF54.
[9] abbreviates: P. falciparum K1, in vitro, first value of K1/NF54 cell, read-out: IC50 (ng/ml) K1.

The structures appear in SMILES notation. ≈ marks a conversion by molar mass, not a printed value. Like-named read-outs stand apart in the source and are kept apart here.

As to `C[C@H]1[C@@H](O)O[C@@H]2O[C@@]3(C)CC[C@H]4[C@H](C)CC[C@@H]1[C@@]24OO3` [dihydroartemisinin], the “NOAEL for embryonic RBCs” value in series [1] came to 0.01 µg/mL.

In the case of `CC(C)(N)CNC(=O)C[C@H]1CC[C@]2(CC1)OO[C@]1(O2)C2CC3CC(C2)CC1C3` [OZ277, reference compound], the “NOAEL for embryonic RBCs” value in series [1] worked out at 0.2 µg/mL. In addition, in series [2], the “Cures 24 h prior to infection (30 mg/kg)” value was 0/5, the “Activity (%) 24 h prior to infection (30 mg/kg)” value (from here on “Activity (%) 24 h prior”) is reported as 13%, the “Cures 48 h prior to infection (100 mg/kg)” value (“Cures 48 h prior” for short) is 0/5 and the “Activity (%) 48 h prior to infection (100 mg/kg)” value (shortened to “Activity (%) 48 h prior”) stood at 0%. Further, in series [3], the “Stability in Rat Blood (t1/2) at 37° C.” value was 0.8. For the same compound, in series [4], the “Survival (days) 30 mg/kg SSV po” value was found to be 8.0 days, the “Activity (%) 30 mg/kg SSV po” value turned out to be 99.7% and the “Cures 30 mg/kg SSV po” value is recorded as 0/5. In series [5], the “In Vivo Oral t1/2 at 10 mg/kg” value is on record as 1.6 h and the “Oral Bioavailability at 10 mg/kg (%)” value is listed as 19%.

`CS(=O)(=O)O.NC1CCC(Oc2ccc(C3CCC4(CC3)OOC3(O4)C4CC5CC(C4)CC3C5)cc2)CC1` (centres unmarked) [OZ493]: the “NOAEL for embryonic RBCs” value in series [1] was 1 µg/mL. Moreover, in series [2], the “Cures 24 h prior to infection (30 mg/kg)” value was 3/5, the “Activity (%) 24 h prior” value is given as greater than 99.9%, the “Cures 48 h prior” value was 5/5 and the “Activity (%) 48 h prior” value was found to be 99%. Besides, in series [2], the “Activity (%) 72 h prior to infection (100 mg/kg)” value (“Activity (%) 72 h prior” for short) was 99.9%, the “Cures 72 h prior to infection (100 mg/kg)” value (from here on “Cures 72 h prior”) was 5/5, the “Activity (%) 96 h prior to infection (100 mg/kg)” value is 99.5% and the “Cures 96 h prior to infection (100 mg/kg)” value was 3/5. Besides, in series [3], the “Stability in Rat Blood (t1/2) at 37° C.” value is listed as greater than 17. In series [5] (10 mg/kg), the “In Vivo Oral t1/2 at 10 mg/kg” value is reported as 7.7 h and the “Oral Bioavailability at 10 mg/kg (%)” value came out at 51%.

Turning to `OC(c1cc(C(F)(F)F)nc2c(C(F)(F)F)cccc12)C1CCCCN1` (centres unmarked) [MQ, mefloquine, reference compound], in series [6] (setting [8]), the IC50 stood at 5.8 ng/mL (≈ 0.0153 µM). Besides, in series [2], the “Cures 24 h prior to infection (30 mg/kg)” value is given as 3/5, the “Activity (%) 24 h prior” value was greater than 99.9%, the “Cures 48 h prior” value is recorded as 3/5 and the “Activity (%) 48 h prior” value is recorded as 99.9%. In series [2], the “Activity (%) 72 h prior” value was greater than 99.9% and the “Cures 72 h prior” value was 0/5. Besides, in series [4], the “Survival (days) 30 mg/kg SSV po” value amounted to 21.8 days, the “Activity (%) 30 mg/kg SSV po” value was 99.6% and the “Cures 30 mg/kg SSV po” value was 0/5. For the same compound, the IC50 in series [7] (setting [9]) stood at 3 ng/mL (≈ 0.00793 µM).

Take `CS(=O)(=O)O.c1cc([C@H]2CC[C@]3(CC2)OOC2(O3)C3CC4CC(C3)CC2C4)ccc1OC1CCNCC1` (some centres unmarked) [OZ429]: in series [2], the “Cures 24 h prior to infection (30 mg/kg)” value is recorded as 2/5, the “Activity (%) 24 h prior” value is reported as 99.8%, the “Cures 48 h prior” value was 5/5 and the “Activity (%) 48 h prior” value is listed as 99.8%. Further, the “Stability in Rat Blood (t1/2) at 37° C.” value in series [3] is 5.5. For the same compound, in series [4], the “Survival (days) 30 mg/kg SSV po” value is given as 27.8 days, the “Activity (%) 30 mg/kg SSV po” value is reported as 99.97% and the “Cures 30 mg/kg SSV po” value is listed as 4/5. Moreover, in series [5], the “In Vivo Oral t1/2 at 10 mg/kg” value amounted to 5.3 h and the “Oral Bioavailability at 10 mg/kg (%)” value is 73%.

On to `CCN(CC)CCCC(C)Nc1ccnc2cc(Cl)ccc12` (centres unmarked) [CQ, chloroquine, reference compound], for which, in series [6] (K1 / NF54, read-out: IC50 (ng/ml) NF54), the IC50 was found to be 5.1 ng/mL (≈ 0.0159 µM). Moreover, in series [2], the “Cures 24 h prior to infection (30 mg/kg)” value is 0/5 and the “Cures 48 h prior” value was 0/5. Besides, in series [4], the “Survival (days) 30 mg/kg SSV po” value is 9.6 days and the “Cures 30 mg/kg SSV po” value is recorded as 0/5. Also, in series [7] (K1 / NF54, read-out: IC50 (ng/ml) K1), the IC50 turned out to be 62 ng/mL (≈ 0.194 µM).

For `CO[C@H]1O[C@@H]2O[C@@]3(C)CC[C@H]4[C@H](C)CC[C@@H]([C@H]1C)[C@@]24OO3` [AM, artemether, reference compound], the IC50 in series [6] (setting [8]) was found to be 1.2 ng/mL (≈ 0.00402 µM). In addition, in series [4], the “Survival (days) 30 mg/kg SSV po” value came out at 9.0 days, the “Activity (%) 30 mg/kg SSV po” value came out at 99.7% and the “Cures 30 mg/kg SSV po” value is reported as 0/5. The IC50 in series [7] (setting [9]) came to 0.74 ng/mL (≈ 0.00248 µM).

With `CS(=O)(=O)O.NC1CCC(Oc2ccc(C3CCC4(CC3)OOC3(O4)C4CC5CC(C4)CC3C5)cc2)CC1` (centres unmarked) [OZ537], in series [2], the “Cures 24 h prior to infection (30 mg/kg)” value is recorded as 5/5, the “Activity (%) 24 h prior” value was greater than 99.9%, the “Cures 48 h prior” value is recorded as 5/5 and the “Activity (%) 48 h prior” value is greater than 99.9%. Further, the “Stability in Rat Blood (t1/2) at 37° C.” value in series [3] is recorded as greater than 17. In addition, in series [5] (10 mg/kg), the “In Vivo Oral t1/2 at 10 mg/kg” value is given as 11.8 h and the “Oral Bioavailability at 10 mg/kg (%)” value is reported as 29%.

In the case of `C[C@@H]1CC[C@H]2[C@@H](C)C(=O)O[C@@H]3O[C@@]4(C)CC[C@@H]1[C@]32OO4` [artemisinin], in series [1], the “NOAEL for embryonic RBCs” value amounted to 0.1 µg/mL.

As for `CS(=O)(=O)O.c1cc(C2CCC3(CC2)OOC2(O3)C3CC4CC(C3)CC2C4)ccc1OCCN1CCOCC1` (centres unmarked) [OZ439], the “NOAEL for embryonic RBCs” value in series [1] is 5 µg/mL. In series [2], the “Cures 24 h prior to infection (30 mg/kg)” value is 5/5, the “Activity (%) 24 h prior” value is 99.8%, the “Cures 48 h prior” value is reported as 5/5 and the “Activity (%) 48 h prior” value was 99.6%. Also, in series [2], the “Activity (%) 72 h prior” value was 99.6%, the “Cures 72 h prior” value is reported as 5/5, the “Activity (%) 96 h prior to infection (100 mg/kg)” value was 99.5% and the “Cures 96 h prior to infection (100 mg/kg)” value is 5/5. For the same compound, the “Oral Bioavailability at 10 mg/kg (%)” value in series [5] is reported as 94%.
